Measurements reported in patent US8088761B2, “Enzyme inhibitors” (Cancer Research Technology Limited, priority 2005, dated 2012).

Legend:
HCT116 cells = test: Cell viability assay (MTT) in HCT116 cell line; format: cell-based; settings: Homo sapiens, HCT-116, 72 hrs, IC50 range, read-out: HCT116 cell growth inhibition
In short: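 MTT read-out (4 hrs, 37 °C, DMSO extraction) following 72 hrs of treatment with 0-50 μM Aurora inhibitor. HCT116 cells were plated a day earlier and tested in triplicate; IC50 derived from the curve.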

Aurora-A = molecular target: T1, Aurora-A (Homo sapiens, UniProt O14965); test: Flashplate Aurora A enzyme inhibition assay; format: biochemical; settings: Flashplate assay; IC50 range; read-out: Aurora-A inhibition
T1 sequence (O14965 1-403): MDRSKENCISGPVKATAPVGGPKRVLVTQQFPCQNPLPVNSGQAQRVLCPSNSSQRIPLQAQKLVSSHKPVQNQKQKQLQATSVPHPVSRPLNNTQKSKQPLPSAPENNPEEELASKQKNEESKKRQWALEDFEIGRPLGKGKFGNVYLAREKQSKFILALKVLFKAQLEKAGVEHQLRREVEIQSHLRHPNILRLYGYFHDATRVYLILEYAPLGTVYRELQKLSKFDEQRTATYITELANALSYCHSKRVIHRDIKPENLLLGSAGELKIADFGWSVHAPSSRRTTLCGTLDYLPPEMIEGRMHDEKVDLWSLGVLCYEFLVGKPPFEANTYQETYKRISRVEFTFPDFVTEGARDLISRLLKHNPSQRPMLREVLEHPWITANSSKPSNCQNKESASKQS
In short: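 This is a radiometric Flashplate format: plates were precoated with DTT, and compound (in 2% DMSO) was mixed with kinase buffer (pH 7.5 Tris, MgCl2, NaCl) containing 1 mM MBP, 20 μM ATP and ^33P-ATP. The reaction was started with 250 ng Aurora-A per well and incubated 2 h at RT. It was then stopped by 10 mM sodium pyrophosphate washing, and plates were scintillation-counted.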

COc1ccc(-c2nc3c(N4CCN(Cc5cccc6c5OCO6)CC4)c(Br)cnc3[nH]2)cc1 [Example 119, 7-(4-(Benzo[d][1,3]dioxol-4-ylmethyl)piperazin-1-yl)-6-bromo-2-(4-methoxyphenyl)-3H-imidazo[4,5-b]pyridine]
IC50 (HCT116 cells): < 500 nM | IC50 (Aurora-A): < 500 nM

O=C(CN1CCN(c2c(Cl)cnc3[nH]c(-c4ccccc4)nc23)CC1)Nc1nccs1 [Example 4, 2-[4-(6-Chloro-2-phenyl-3H-imidazo[4,5-b]pyridin-7-yl)-piperazin-1-yl]-N-thiazol-2-yl-acetamide]
IC50 (HCT116 cells): 500 to 2000 nM | IC50 (Aurora-A): < 500 nM

O=C(CN1CCN(c2c(Br)cnc3[nH]c(-c4ccccc4)nc23)CC1)Nc1nccs1 [Example 5, 2-[4-(6-Bromo-2-phenyl-3H-imidazo[4,5-b]pyridin-7-yl)-piperazin-1-yl]-N-thiazol-2-yl-acetamide]
IC50 (HCT116 cells): 2000 to 50000 nM | IC50 (Aurora-A): < 500 nM

COc1ccc(-c2nc3c(N4CCN(Cc5cccnc5)CC4)c(Br)cnc3[nH]2)cc1 [Example 28, 6-Bromo-2-(4-methoxyphenyl)-7-(4-(pyridin-3-ylmethyl)piperazin-1-yl)-3H-imidazo[4,5-b]pyridine]
IC50 (HCT116 cells): 500 to 2000 nM | IC50 (Aurora-A): < 500 nM

Cc1cc(CN2CCN(c3c(Cl)cnc4[nH]c(-c5ccc(CN6CCOCC6)cc5)nc34)CC2)no1 [Example 80, 6-Chloro-7-[4-(5-methyl-isoxazol-3-ylmethyl)-piperazin-1-yl]-2-(4-morpholin-4-ylmethyl-phenyl)-3H-imidazo[4,5-b]pyridine]
IC50 (HCT116 cells): 500 to 2000 nM | IC50 (Aurora-A): < 500 nM

Brc1cnc2[nH]c(-c3ccc(Cn4ccnc4)cc3)nc2c1N1CCN(Cc2cccnc2)CC1 [Example 110, 2-(4-((1H-Imidazol-1-yl)methyl)phenyl)-6-bromo-7-(4-(pyridin-3-ylmethyl)piperazin-1-yl)-3H-imidazo[4,5-b]pyridine]
IC50 (HCT116 cells): 500 to 2000 nM | IC50 (Aurora-A): < 500 nM

CC(c1ccncc1)N1CCN(c2c(Br)cnc3[nH]c(-c4ccc(OCCN(C)C)cc4)nc23)CC1 (centres unmarked) [Example 131, 2-(4-(6-Bromo-7-(4-(1-(pyridin-4-yl)ethyl)piperazin-1-yl)-3H-imidazo[4,5-b]pyridin-2-yl)phenoxy)-N,N-dimethylethanamine]
IC50 (HCT116 cells): < 500 nM | IC50 (Aurora-A): < 500 nM

CN(C)Cc1cccc(-c2nc3c(N4CCN(CC(=O)Nc5nccs5)CC4)c(Br)cnc3[nH]2)c1 [Example 13, 2-{4-[6-Bromo-2-(3-dimethylaminomethyl-phenyl)-3H-imidazo[4,5-b]pyridin-7-yl]-piperazin-1-yl}-N-thiazol-2-yl-acetamide]
IC50 (HCT116 cells): 500 to 2000 nM | IC50 (Aurora-A): < 500 nM

Brc1cnc2[nH]c(-c3ccc(CN4CCOCC4)cc3)nc2c1N1CCN(Cc2nccs2)CC1 [Example 152, 4-(4-(6-Bromo-7-(4-(thiazol-2-ylmethyl)piperazin-1-yl)-3H-imidazo[4,5-b]pyridin-2-yl)benzyl)morpholine]
IC50 (HCT116 cells): 500 to 2000 nM | IC50 (Aurora-A): < 500 nM

COc1ccc(-c2nc3c(N4CCN(Cc5ccc(OC)nc5)CC4)c(Br)cnc3[nH]2)cc1 [Example 116, 6-Bromo-2-(4-methoxyphenyl)-7-(4-((6-methoxypyridin-3-yl)methyl)piperazin-1-yl)-3H-imidazo[4,5-b]pyridine]
IC50 (HCT116 cells): 500 to 2000 nM | IC50 (Aurora-A): < 500 nM

COc1ccc(-c2nc3c(N4CCN(Cc5c(C)noc5C)CC4)c(Br)cnc3[nH]2)cc1 [Example 127, 4-((4-(6-Bromo-2-(4-methoxyphenyl)-3H-imidazo[4,5-b]pyridin-7-yl)piperazin-1-yl)methyl)-3,5-dimethylisoxazole]
IC50 (HCT116 cells): 500 to 2000 nM | IC50 (Aurora-A): < 500 nM

CC(C)(C)OC(=O)N1CCN(c2ccc(-c3nc4c(N5CCN(Cc6cccnc6)CC5)c(Cl)cnc4[nH]3)cc2)CC1 [Example 136, tert-Butyl 4-(4-(6-chloro-7-(4-(pyridin-3-ylmethyl)piperazin-1-yl)-3H-imidazo[4,5-b]pyridin-2-yl)phenyl)piperazine-1-carboxylate]
IC50 (HCT116 cells): 2000 to 50000 nM | IC50 (Aurora-A): 500 to 2000 nM

O=C(CN1CCN(c2c(Cl)cnc3[nH]c(-c4ccc(OCCO)cc4)nc23)CC1)Nc1nccs1 [Example 183, 2-(4-(6-Chloro-2-(4-(2-hydroxyethoxy)phenyl)-3H-imidazo[4,5-b]pyridin-7-yl)piperazin-1-yl)-N-(thiazol-2-yl)acetamide]
IC50 (HCT116 cells): 500 to 2000 nM | IC50 (Aurora-A): < 500 nM

CN1CCN(c2ccc(-c3nc4c(N5CCN(Cc6ccc(Cl)cc6)CC5)c(Br)cnc4[nH]3)cc2)CC1 [Example 86, 6-Bromo-7-[4-(4-chloro-benzyl)-piperazin-1-yl]-2-[4-(4-methyl-piperazin-1-yl)-phenyl]-3H-imidazo[4,5-b]pyridine]
IC50 (HCT116 cells): < 500 nM | IC50 (Aurora-A): < 500 nM

COc1ccc(-c2nc3c(N4CCN(Cc5cccnc5)CC4)c(Br)cnc3[nH]2)cn1 [Example 94, 6-Bromo-2-(6-methoxypyridin-3-yl)-7-(4-(pyridin-3-ylmethyl)piperazin-1-yl)-3H-imidazo[4,5-b]pyridine]
IC50 (HCT116 cells): 2000 to 50000 nM | IC50 (Aurora-A): < 500 nM

O=C(CN1CCN(c2c(Cl)cnc3[nH]c(-c4ccc(CN5CCOCC5)cc4)nc23)CC1)Nc1nccs1 [Example 76, 2-{4-[6-Chloro-2-(4-morpholin-4-ylmethyl-phenyl)-3H-imidazo[4,5-b]pyridin-7-yl]-piperazin-1-yl}-N-thiazol-2-yl-acetamide]
IC50 (HCT116 cells): < 500 nM | IC50 (Aurora-A): < 500 nM

CN(C)c1ccc(-c2nc3c(N4CCN(Cc5ccncc5)CC4)c(Br)cnc3[nH]2)cc1 [Example 31, 4-(6-Bromo-7-(4-(pyridin-4-ylmethyl)piperazin-1-yl)-3H-imidazo[4,5-b]pyridin-2-yl)-N,N-dimethylaniline]
IC50 (HCT116 cells): 500 to 2000 nM | IC50 (Aurora-A): < 500 nM

COc1cccc(-c2nc3c(N4CCN(Cc5cc(C)on5)CC4)c(Br)cnc3[nH]2)c1 [Example 81, 6-Bromo-2-(3-methoxy-phenyl)-7-[4-(5-methyl-isoxazol-3-ylmethyl)-piperazin-1-yl]-3H-imidazo[4,5-b]pyridine]
IC50 (HCT116 cells): 500 to 2000 nM | IC50 (Aurora-A): < 500 nM

COc1ccc(-c2nc3c(N4CCN(CC(=O)Nc5nccs5)CC4)c(Cl)cnc3[nH]2)cc1 [Example 19, 2-(4-(6-Chloro-2-(4-methoxyphenyl)-3H-imidazo[4,5-b]pyridin-7-yl)piperazin-1-yl)-N-(thiazol-2-yl)acetamide]
IC50 (HCT116 cells): 500 to 2000 nM | IC50 (Aurora-A): < 500 nM

CN(C)c1ccc(-c2nc3c(N4CCN(CCc5ccccc5)CC4)c(Cl)cnc3[nH]2)cc1 [Example 176, 4-(6-Chloro-7-(4-phenethylpiperazin-1-yl)-3H-imidazo[4,5-b]pyridin-2-yl)-N,N-dimethylaniline]
IC50 (HCT116 cells): 2000 to 50000 nM | IC50 (Aurora-A): 500 to 2000 nM

Brc1cnc2[nH]c(-c3ccc(OC4CCNCC4)cc3)nc2c1N1CCN(Cc2cccnc2)CC1 [Example 113, 6-Bromo-2-(4-(piperidin-4-yloxy)phenyl)-7-(4-(pyridin-3-ylmethyl)piperazin-1-yl)-3H-imidazo[4,5-b]pyridine]
IC50 (HCT116 cells): < 500 nM | IC50 (Aurora-A): < 500 nM

CN(C)c1ccc(-c2nc3c(N4CCN(CC(=O)Nc5ccccc5)CC4)c(Br)cnc3[nH]2)cc1 [Example 20, 2-(4-(6-Bromo-2-(4-(dimethylamino)phenyl)-3H-imidazo[4,5-b]pyridin-7-yl)piperazin-1-yl)-N-phenylacetamide]
IC50 (HCT116 cells): 500 to 2000 nM | IC50 (Aurora-A): < 500 nM

Clc1cnc2[nH]c(-c3ccc(CN4CCOCC4)cc3)nc2c1N1CCN(Cc2cscn2)CC1 [Example 177, 4-(4-(6-Chloro-7-(4-(thiazol-4-ylmethyl)piperazin-1-yl)-3H-imidazo[4,5-b]pyridin-2-yl)benzyl)morpholine]
IC50 (HCT116 cells): 500 to 2000 nM | IC50 (Aurora-A): < 500 nM

COc1ccc(-c2nc3c(N4CCN(Cc5nccn5C)CC4)c(Br)cnc3[nH]2)cc1 [Example 167, 6-Bromo-2-(4-methoxyphenyl)-7-(4-((1-methyl-1H-imidazol-2-yl)methyl)piperazin-1-yl)-3H-imidazo[4,5-b]pyridine]
IC50 (HCT116 cells): 500 to 2000 nM | IC50 (Aurora-A): < 500 nM

COc1ccc(-c2nc3c(N4CCN(Cc5cncn5C)CC4)c(Br)cnc3[nH]2)cc1 [Example 165, 6-Bromo-2-(4-methoxyphenyl)-7-(4-((1-methyl-1H-imidazol-5-yl)methyl)piperazin-1-yl)-3H-imidazo[4,5-b]pyridine]
IC50 (HCT116 cells): 500 to 2000 nM | IC50 (Aurora-A): < 500 nM

CC(C)(C)OC(=O)NCc1ccc(-c2nc3c(N4CCC(Oc5ccccc5)CC4)c(Br)cnc3[nH]2)cc1 [Example 134, tert-Butyl 4-(6-bromo-7-(4-phenoxypiperidin-1-yl)-3H-imidazo[4,5-b]pyridin-2-yl)benzylcarbamate]
IC50 (HCT116 cells): < 500 nM | IC50 (Aurora-A): < 500 nM

Cc1noc(C)c1CN1CCN(c2c(Br)cnc3[nH]c(-c4ccc(CN5CCOCC5)cc4)nc23)CC1 [Example 128, 4-(4-(6-Bromo-7-(4-((3,5-dimethylisoxazol-4-yl)methyl)piperazin-1-yl)-3H-imidazo[4,5-b]pyridin-2-yl)benzyl)morpholine]
IC50 (HCT116 cells): < 500 nM | IC50 (Aurora-A): < 500 nM

Brc1cnc2[nH]c(-c3ccc(-n4cccn4)cc3)nc2c1N1CCN(Cc2cccnc2)CC1 [Example 108, 2-(4-(1H-pyrazol-1-yl)phenyl)-6-bromo-7-(4-(pyridin-3-ylmethyl)piperazin-1-yl)-3H-imidazo[4,5-b]pyridine]
IC50 (HCT116 cells): 500 to 2000 nM | IC50 (Aurora-A): < 500 nM
